Measured values: patent US10519162B2, “6,7-dihydropyrazolo[1,5-α]pyrazin-4(5H)-one compounds and their use as negative allosteric modulators of mGluR2 receptors” (Janssen Pharmaceutica NV, priority 2014, dated 2019)
Like-named read-outs stand apart in the source and are kept apart here. One block for each compound: values may come before it.

Columns and labels:
[1] = target: T1, human mGlu2 receptor (Homo sapiens, UniProt Q14416); test: [35S]GTPγS binding assay (mGluR2 negative allosteric modulation, glutamate ~EC80 60 μM); type: biochemical; settings: for Emax: read-out: GTPγS-hmGluR2 anGT Emax; for IC50: glutamate ~EC80 (60 μM), pIC50 = −log IC50 (M)
T1 construct: expressed in transfected cells; host or cells: CHO cells
Protocol: 1) [^35S]GTPγS Binding Assay
[^35S]GTPγS Binding Assay
Total reaction volume was 200 μl. […] Membrane-bound radioactivity was counted in a Topcount.

[2] = maximal % inhibition relative to the control glutamate response (EC80 glutamate)
[3] = membranes from CHO cells transfected with human mGlu2 receptor, read-out: GTPγS-hmGluR2 anGT pIC50 (converted)

T1 sequence (Q14416 19-872): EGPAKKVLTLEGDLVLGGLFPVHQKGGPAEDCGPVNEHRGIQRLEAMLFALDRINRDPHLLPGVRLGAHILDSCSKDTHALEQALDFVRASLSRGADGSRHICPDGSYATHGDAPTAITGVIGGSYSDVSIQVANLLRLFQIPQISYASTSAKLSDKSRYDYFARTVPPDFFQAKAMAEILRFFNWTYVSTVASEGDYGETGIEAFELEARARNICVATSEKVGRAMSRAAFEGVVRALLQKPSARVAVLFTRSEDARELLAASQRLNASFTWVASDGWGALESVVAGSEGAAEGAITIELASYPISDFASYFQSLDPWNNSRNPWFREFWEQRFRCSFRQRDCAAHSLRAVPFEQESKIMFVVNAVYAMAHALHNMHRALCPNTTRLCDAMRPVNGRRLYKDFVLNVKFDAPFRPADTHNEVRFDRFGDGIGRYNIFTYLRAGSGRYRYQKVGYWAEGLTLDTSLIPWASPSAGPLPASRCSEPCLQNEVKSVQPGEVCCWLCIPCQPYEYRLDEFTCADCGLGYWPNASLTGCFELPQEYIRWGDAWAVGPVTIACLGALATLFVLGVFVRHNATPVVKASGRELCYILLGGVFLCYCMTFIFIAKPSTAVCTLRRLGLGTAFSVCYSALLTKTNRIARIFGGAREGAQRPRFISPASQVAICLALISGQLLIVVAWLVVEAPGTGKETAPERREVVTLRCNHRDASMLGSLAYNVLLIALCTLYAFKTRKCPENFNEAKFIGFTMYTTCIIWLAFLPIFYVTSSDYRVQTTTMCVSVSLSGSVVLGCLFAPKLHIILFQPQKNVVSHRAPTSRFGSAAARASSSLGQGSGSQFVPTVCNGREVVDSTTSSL

SMILES: CC(=O)Nc1ccc(C(=O)Nc2cnn3c2C(=O)N(c2ccc(C(F)(F)F)cc2)C[C@@H]3C)cn1 [Co. No. 159, 6-acetamido-N-[(7S)-7-methyl-4-oxo-5-[4-(trifluoromethyl)phenyl]-6,7-dihydropyrazolo[1,5-a]pyrazin-3-yl]pyridine-3-carboxamide]
- melting point: 265 °C
- Emax [1, 2]: 106%
- IC50 [1, 3]: 6.03e-09 M

SMILES: COc1c(F)cccc1C(=O)Nc1cnn2c1C(=O)N(c1ccc(C(F)(F)F)cc1)C[C@@H]2C [Co. No. 19]
- melting point: 170.98 °C
- Emax [1, 2]: 117%
- IC50 [1, 3]: 4.37e-09 M

SMILES: COCc1ccccc1C(=O)Nc1cnn2c1C(=O)N(c1ccc(C(F)(F)F)cc1)C[C@@H]2C [Co. No. 78]
- melting point: 88.18 °C
- Emax [1, 2]: 105%
- IC50 [1, 3]: 5.62e-08 M

SMILES: C[C@H]1CN(c2ccc(C(F)(F)F)cc2)C(=O)c2c(NC(=O)c3ccc(C(N)=O)cn3)cnn21 [Co. No. 82, N2-[(7S)-7-Methyl-4-oxo-5-[4-(trifluoromethyl)phenyl]-6,7-dihydropyrazolo[1,5-a]pyrazin-3-yl]pyridine-2,5-dicarboxamide]
- melting point: 278.58 °C
- Emax [1, 2]: 104%
- IC50 [1, 3]: 1.12e-07 M

SMILES: COc1ccc(C(=O)Nc2cnn3c2C(=O)N(c2ccc(C(F)(F)F)c(OC)n2)C[C@@H]3C)cc1 [Co. No. 77]
- melting point: 194.9 °C
- Emax [1, 2]: 103%
- IC50 [1, 3]: 7.76e-08 M

SMILES: COc1cc(C(=O)Nc2cnn3c2C(=O)N(c2ccc(C(F)(F)F)cc2)C[C@@H]3C)ccc1F [Co. No. 51]
- melting point: 140.98 °C
- Emax [1, 2]: 113%
- IC50 [1, 3]: 1.45e-08 M

SMILES: COc1cc(F)ccc1C(=O)Nc1cnn2c1C(=O)N(c1ccc(C(F)(F)F)cc1)C[C@@H]2C [Co. No. 58]
- melting point: 240.77 °C
- Emax [1, 2]: 101%
- IC50 [1, 3]: 2.19e-08 M

SMILES: C[C@H]1CN(c2ccc(C(F)(F)F)cc2)C(=O)c2c(NC(=O)c3ccc(F)cc3)cnn21 [Co. No. 49]
- melting point: 119.36 °C
- Emax [1, 2]: 101%
- IC50 [1, 3]: 1.32e-08 M

SMILES: COc1ccc(C(=O)Nc2cnn3c2C(=O)N(c2ccc(C(F)(F)F)cc2)C[C@@H]3C)c(F)c1 [Co. No. 44]
- melting point: 214.58 °C
- Emax [1, 2]: 115%
- IC50 [1, 3]: 1.12e-08 M

SMILES: COCc1cncc(C(=O)Nc2cnn3c2C(=O)N(c2ccc(C(F)(F)F)cc2)C[C@@H]3C)c1 [Co. No. 138]
- melting point: 149.93 °C
- Emax [1, 2]: 106%
- IC50 [1, 3]: 2.95e-08 M

SMILES: COc1ccc(C(=O)Nc2cnn3c2C(=O)N(c2ccc(C(F)(F)F)cc2)C[C@@H]3C)cn1 [Co. No. 42]
- melting point: 127.02 °C
- Emax [1, 2]: 105%
- IC50 [1, 3]: 1.1e-08 M

SMILES: C[C@H]1CN(c2ccccc2)C(=O)c2c(NC(=O)c3ccnc(N)c3)cnn21 [Co. No. 97]
- melting point: 153.01 °C
- Emax [1, 2]: 111%
- IC50 [1, 3]: 3.16e-07 M

SMILES: Cc1nccc(C(=O)Nc2cnn3c2C(=O)N(c2ccc(C(F)(F)F)cc2)C[C@@H]3C)c1C [Co. No. 156]
- melting point: 182.69 °C
- GTPγS-hmGluR2 anGT Emax [1, 2]: 113%
- IC50 [1, 3]: 2.4e-08 M

SMILES: C[C@H]1CN(c2ccc(C(F)(F)F)cc2)C(=O)c2c(NC(=O)C3CCOCC3)cnn21 [Co. No. 186]
- melting point: 142.94 °C
- Emax [1, 2]: 106%
- IC50 [1, 3]: 7.08e-07 M

SMILES: C[C@H]1CN(c2ccc(C(F)(F)F)cn2)C(=O)c2c(NC(=O)c3ccc(N)nc3)cnn21 [Co. No. 61]
- melting point: 223.46 °C
- Emax [1, 2]: 103%
- IC50 [1, 3]: 2.45e-08 M

SMILES: C[C@H]1CN(c2ccc(C(F)(F)F)cc2)C(=O)c2c(NC(=O)Cc3ccccc3)cnn21 [Co. No. 87]
- melting point: 135.05 °C
- Emax [1, 2]: 103%
- IC50 [1, 3]: 2e-07 M

SMILES: Cc1ncccc1C(=O)Nc1cnn2c1C(=O)N(c1ccc(C(F)(F)F)cc1)C[C@@H]2C [Co. No. 66]
- melting point: 120.37 °C
- Emax [1, 2]: 104%
- IC50 [1, 3]: 2.75e-08 M

SMILES: COCC1CN(c2ccc(C(F)(F)F)cc2)C(=O)c2c(NC(=O)c3ccc(N)nc3)cnn21 (single isomer, unassigned) [Co. No. 96]
- melting point: 225.83 °C
- Emax [1, 2]: 95%
- IC50 [1, 3]: 1.45e-06 M

SMILES: C[C@H]1CN(c2ccc(C(F)(F)F)cc2)C(=O)c2c(NC(=O)c3ncco3)cnn21 [Co. No. 63, N-[(7S)-7-Methyl-4-oxo-5-[4-(trifluoromethyl)phenyl]-6,7-dihydropyrazolo[1,5-a]pyrazin-3-yl]oxazole-2-carboxamide]
- melting point: 204.97 °C
- Emax [1, 2]: 109%
- IC50 [1, 3]: 2.63e-08 M

SMILES: COc1ccccc1C(=O)Nc1cnn2c1C(=O)N(c1ccc(C(F)(F)F)c(OC)n1)C[C@@H]2C [Co. No. 75]
- melting point: 231.11 °C
- Emax [1, 2]: 103%
- IC50 [1, 3]: 5.37e-08 M

SMILES: C[C@H]1CN(c2ccc(C(F)(F)F)cc2)C(=O)c2c(NC(=O)c3ccc(S(=O)(=O)F)cc3)cnn21 [Co. No. 218]
- melting point: 163.64 °C
- IC50 ([1]; GTPγS-hmGluR2 anGT pIC50, membranes from CHO cells transfected with human mGlu2 receptor): 4.37e-08 M
- Emax [1]: 112%

Now from value to compound:

- melting point: 175.17 °C
- Emax [1, 2]: 104%
- IC50 [1, 3]: 1.78e-08 M
SMILES: Cc1ccc(C(=O)Nc2cnn3c2C(=O)N(c2ccc(C(F)(F)F)cc2)C[C@@H]3C)cn1 [Co. No. 54]

- melting point: 154.53 °C
- Emax [1, 2]: 108%
- IC50 [1, 3]: 2.29e-09 M
SMILES: Cc1cc(N2C[C@H](C)n3ncc(NC(=O)c4ccccc4)c3C2=O)ccc1C(F)(F)F [Co. No. 7]

- melting point: 243.14 °C
- Emax [1, 2]: 97%
- IC50 [1, 3]: 3.8e-08 M
SMILES: Cc1cc(C(=O)Nc2cnn3c2C(=O)N(c2ccc(C(F)(F)F)cc2)C[C@@H]3C)on1 [Co. No. 71]

- melting point: 240.1 °C
- Emax [1, 2]: 107%
- IC50 [1, 3]: 8.51e-08 M
SMILES: C[C@H]1CN(c2ccc(C(F)(F)F)cc2)C(=O)c2c(NC(=O)c3cn[nH]c3)cnn21 [Co. No. 79]

- melting point: 170.75 °C
- Emax [1, 2]: 108%
- IC50 [1, 3]: 3.02e-09 M
SMILES: COCc1cncc(C(=O)Nc2cnn3c2C(=O)N(c2ccc(C(F)(F)F)c(Cl)c2)C[C@@H]3C)c1 [Co. No. 139]

- melting point: 181.21 °C
- Emax [1, 2]: 105%
- IC50 [1, 3]: 1.58e-09 M
SMILES: C[C@H]1CN(c2ccc(OC(F)(F)F)c(Cl)c2)C(=O)c2c(NC(=O)c3cccnc3)cnn21 [Co. No. 195]

- melting point: 192.47 °C
- Emax [1, 2]: 106%
- IC50 [1, 3]: 1.66e-09 M
SMILES: Cc1cc(C(=O)Nc2cnn3c2C(=O)N(c2ccc(C(F)(F)F)c(Cl)c2)C[C@@H]3C)cc(N)n1 [Co. No. 174]

- melting point: 133.34 °C
- GTPγS-hmGluR2 anGT Emax [1, 2]: 113%
SMILES: C[C@H]1CN(c2ccc(C(F)F)c(Cl)c2)C(=O)c2c(NC(=O)c3ccc(N)nc3)cnn21 [Co. No. 40]

- melting point: 283.48 °C
- Emax [1, 2]: 113%
- IC50 [1, 3]: 3.39e-08 M
SMILES: C[C@H]1CN(c2ccc(C(F)(F)F)cc2)C(=O)c2c(NC(=O)c3cnc(N)s3)cnn21 [Co. No. 74, 2-Amino-N-[(7S)-7-methyl-4-oxo-5-[4-(trifluoromethyl)phenyl]-6,7-dihydropyrazolo[1,5-a]pyrazin-3-yl]thiazole-5-carboxamide]

- melting point: 285.92 °C
- Emax [1, 2]: 100%
- IC50 [1, 3]: 2.45e-07 M
SMILES: Cc1cc(C(=O)Nc2cnn3c2C(=O)N(c2ccc(C(F)(F)F)cc2)C[C@@H]3C)[nH]n1 [Co. No. 89]

- melting point: 233.32 °C
- Emax [1, 2]: 108%
- IC50 [1, 3]: 1.35e-09 M
SMILES: Cc1cc(N)ncc1C(=O)Nc1cnn2c1C(=O)N(c1ccc(C(F)(F)F)c(Cl)c1)C[C@@H]2C [Co. No. 164]

- melting point: 128.68 °C
- Emax [1, 2]: 101%
- IC50 [1, 3]: 1.29e-08 M
SMILES: COc1cc(C(=O)Nc2cnn3c2C(=O)N(c2ccc(C(F)(F)F)cc2)C[C@@H]3C)ccn1 [Co. No. 47]

- melting point: 142.82 °C
- Emax [1, 2]: 101%
- IC50 [1, 3]: 6.31e-07 M
SMILES: CC(=O)Nc1cnn2c1C(=O)N(c1ccc(C(F)(F)F)cc1)C[C@@H]2C [Co. No. 160, N-[(7S)-7-methyl-4-oxo-5-[4-(trifluoromethyl)phenyl]-6,7-dihydropyrazolo[1,5-a]pyrazin-3-yl]acetamide]

- melting point: 160.66 °C
- Emax [1, 2]: 107%
- IC50 [1, 3]: 2.04e-08 M
SMILES: COc1cccc(C(=O)Nc2cnn3c2C(=O)N(c2ccc(C(F)(F)F)c(OC)n2)C[C@@H]3C)c1 [Co. No. 56]

- melting point: 226.99 °C
- Emax [1, 2]: 104%
- IC50 [1, 3]: 4.07e-09 M
SMILES: COc1cc(N2C[C@H](C)n3ncc(NC(=O)c4cc(C)nc(C)c4)c3C2=O)ccc1C(F)(F)F [Co. No. 125]

- melting point: 198.98 °C
- Emax [1, 2]: 104%
- IC50 [1, 3]: 1.78e-08 M
SMILES: Cc1ccc(C(=O)Nc2cnn3c2C(=O)N(c2ccc(C(F)(F)F)cc2)C[C@@H]3C)cc1 [Co. No. 53]

- melting point: 209.27 °C
- Emax [1, 2]: 99%
- IC50 [1, 3]: 4.27e-08 M
SMILES: Cc1cc(C(=O)Nc2cnn3c2C(=O)N(c2ccc(C(F)(F)F)cc2)C[C@@H]3C)no1 [Co. No. 72]

- melting point: 289.4 °C
- Emax [1, 2]: 107%
- IC50 [1, 3]: 2.82e-08 M
SMILES: C[C@H]1CN(c2ccc(C(F)(F)F)cc2)C(=O)c2c(NC(=O)c3ccc(N)cn3)cnn21 [Co. No. 68, 5-Amino-N-[(7S)-7-methyl-4-oxo-5-[4-(trifluoromethyl)phenyl]-6,7-dihydropyrazolo[1,5-a]pyrazin-3-yl]pyridine-2-carboxamide]

- melting point: 201.06 °C
- Emax [1, 2]: 108%
- IC50 [1, 3]: 3.8e-08 M
SMILES: COc1nc(N2C[C@H](C)n3ncc(NC(=O)c4ccccc4)c3C2=O)ccc1C(F)(F)F [Co. No. 70]

- melting point: 134.44 °C
- Emax [1, 2]: 107%
- IC50 [1, 3]: 7.41e-09 M
SMILES: Cc1cc(C(=O)Nc2cnn3c2C(=O)N(c2ccc(C(F)(F)F)c(F)c2)C[C@@H]3C)ccn1 [Co. No. 130]

- melting point: 272.72 °C
- Emax [1, 2]: 98%
- IC50 [1, 3]: 4.57e-07 M
SMILES: C[C@H]1CN(c2ccc(C(F)(F)F)cc2)C(=O)c2c(NC(=O)c3c[nH]c(N)n3)cnn21 [Co. No. 94, 2-Amino-N-[(7S)-7-methyl-4-oxo-5-[4-(trifluoromethyl)phenyl]-6,7-dihydropyrazolo[1,5-a]pyrazin-3-yl]-1H-imidazole-4-carboxamide]
